Where a name gives a salt, the structure may show the parent alone.
Key:
[1] = molecular target: human STING (hSTING) HAQ variant in THP1-Dual HAQ Cells (Homo sapiens, UniProt Q86WV6, G230A/H232R/R293Q/R71H); assay: STING cellular assay in THP1-Dual HAQ cells (ISG54 Lucia luciferase reporter, QUANTI-Luc)
[2] = molecular target: human STING (hSTING) R232 variant in THP1-Dual KI-hSTING-R232 Cells (Homo sapiens, UniProt Q86WV6, H232R); assay: STING cellular assay in THP1-Dual KI-hSTING-R232 cells (ISG54 Lucia luciferase reporter, QUANTI-Luc)
Sequence of human STING (hSTING) R232 variant in THP1-Dual KI-hSTING-R232 Cells (Q86WV6 whole entry H232R): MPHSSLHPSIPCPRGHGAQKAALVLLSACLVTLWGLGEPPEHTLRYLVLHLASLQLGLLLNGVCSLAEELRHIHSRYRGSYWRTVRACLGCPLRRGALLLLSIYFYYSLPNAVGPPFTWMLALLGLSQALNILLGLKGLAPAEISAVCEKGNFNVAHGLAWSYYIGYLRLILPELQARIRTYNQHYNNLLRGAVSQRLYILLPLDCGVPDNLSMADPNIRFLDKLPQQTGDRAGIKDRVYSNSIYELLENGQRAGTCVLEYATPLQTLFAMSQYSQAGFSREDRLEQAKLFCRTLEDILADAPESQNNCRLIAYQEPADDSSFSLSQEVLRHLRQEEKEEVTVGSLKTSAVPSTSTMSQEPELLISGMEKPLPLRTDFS

Sequence of human STING (hSTING) HAQ variant in THP1-Dual HAQ Cells (Q86WV6 whole entry R71H/G230A/H232R/R293Q): as the sequence (Q86WV6 whole entry H232R) above, with R71H, G230A, R293Q counted along it

| Structure (SMILES) | EC50 [1] | EC50 [2] |
| --- | --- | --- |
| CCn1nc(C)cc1C(=O)Nc1nc2cc(C(N)=O)cnc2n1C/C=C/Cn1c2nc(-c3cc(C)nn3CC)ncc2c2cc(C(N)=O)cc(OCCCN3CCNCC3)c21 [Example 2-AB-HCl, (E)-9-(4-(6-carbamoyl-2-(1-ethyl-3-methyl-1H-pyrazole-5-carboxamido)-3H-imidazo[4,5-b]pyridin-3-yl)but-2-en-1-yl)-2-(1-ethyl-3-methyl-1H-pyrazol-5-yl)-8-(3-(piperazin-1-yl)propoxy)-9H-pyrimido[4,5-b]indole-6-carboxamide hydrochloride] | 565 nM | 11 nM |
| CCn1nc(C)cc1C(=O)Nc1nc2cc(C(N)=O)cnc2n1C/C=C/Cn1c2nc(-c3cc(C)nn3CC)ncc2c2cc(C(N)=O)cc(OCCCN(C)C(=O)CON)c21 [Example 1-AC] | 34 nM | 3.6 nM |
| CCn1nc(C)cc1C(=O)Nc1nc2cc(C(N)=O)cnc2n1C/C=C/Cn1c2nc(-c3cc(C)nn3CC)ncc2c2cc(C(N)=O)cc(OCCCNC)c21 [Example 1-AB, (E)-9-(4-(6-carbamoyl-2-(1-ethyl-3-methyl-1H-pyrazole-5-carboxamido)-3H-imidazo[4,5-b]pyridin-3-yl)but-2-en-1-yl)-2-(1-ethyl-3-methyl-1H-pyrazol-5-yl)-8-(3-(methylamino)propoxy)-9H-pyrimido[4,5-b]indole-6-carboxamide] | 355 nM | 6.2 nM |
| CCn1nc(C)cc1C(=O)Nc1nc2cc(C(N)=O)cnc2n1C/C=C/Cn1c2nc(-c3cc(C)nn3CC)ncc2c2cc(C(N)=O)cc(OCCCCNC)c21 [Example 3-AB-HCl, (E)-9-(4-(6-carbamoyl-2-(1-ethyl-3-methyl-1H-pyrazole-5-carboxamido)-3H-imidazo[4,5-b]pyridin-3-yl)but-2-en-1-yl)-2-(1-ethyl-3-methyl-1H-pyrazol-5-yl)-8-(4-(methylamino)butoxy)-9H-pyrimido[4,5-b]indole-6-carboxamide hydrochloride] | 640 nM | 23 nM |
| CCn1nc(C)cc1C(=O)Nc1nc2cc(C(N)=O)cnc2n1C/C=C/Cn1c2nc(-c3cc(C)nn3CC)ncc2c2cc(C(N)=O)cc(OCCCN3CCN(C(=O)OC(C)(C)C)CC3)c21 [Example 2-AA, tert-butyl (E)-4-(3-((6-carbamoyl-9-(4-(6-carbamoyl-2-(1-ethyl-3-methyl-1H-pyrazole-5-carboxamido)-3H-imidazo[4,5-b]pyridin-3-yl)but-2-en-1-yl)-2-(1-ethyl-3-methyl-1H-pyrazol-5-yl)-9H-pyrimido[4,5-b]indol-8-yl)oxy)propyl)piperazine-1-carboxylate] | 2.4 nM | 0.46 nM |
| CCn1nc(C)cc1C(=O)Nc1nc2cc(C(N)=O)cnc2n1C/C=C/Cn1c2nc(-c3cc(C)nn3CC)ncc2c2cc(C(N)=O)cc(OCCCN3CCN(C(=O)CON)CC3)c21 [Example 2-AC, (E)-8-(3-(4-(2-(aminooxy)acetyl)piperazin-1-yl)propoxy)-9-(4-(6-carbamoyl-2-(1-ethyl-3-methyl-1H-pyrazole-5-carboxamido)-3H-imidazo[4,5-b]pyridin-3-yl)but-2-en-1-yl)-2-(1-ethyl-3-methyl-1H-pyrazol-5-yl)-9H-pyrimido[4,5-b]indole-6-carboxamide] | 118 nM | 10 nM |
| CCn1nc(C)cc1C(=O)Nc1nc2cc(C(N)=O)cnc2n1C/C=C/Cn1c2nc(-c3cc(C)nn3CC)ncc2c2cc(C(N)=O)cc(OCCCN(C)C(=O)OC(C)(C)C)c21 [Example 1-AA] | 3.4 nM | 0.58 nM |

Results, then the compound that gave them:

| EC50 [1] | EC50 [2] | Structure (SMILES) |
| --- | --- | --- |
| 674 nM | 29 nM | CCn1nc(C)cc1C(=O)Nc1nc2cc(C(N)=O)cnc2n1C/C=C/Cn1c2nc(-c3cc(C)nn3CC)ncc2c2cc(C(N)=O)cc(OCCC3CCNCC3)c21 [Example 6-AB] |
| 4.8 nM | 0.78 nM | CCn1nc(C)cc1C(=O)Nc1nc2cc(C(N)=O)cnc2n1C/C=C/Cn1c2nc(-c3cc(C)nn3CC)ncc2c2cc(C(N)=O)cc(OCCC3CN(C(=O)OC(C)(C)C)C3)c21 [Example 4-AA, tert-butyl (E)-3-(2-((6-carbamoyl-9-(4-(6-carbamoyl-2-(1-ethyl-3-methyl-1H-pyrazole-5-carboxamido)-3H-imidazo[4,5-b]pyridin-3-yl)but-2-en-1-yl)-2-(1-ethyl-3-methyl-1H-pyrazol-5-yl)-9H-pyrimido[4,5-b]indol-8-yl)oxy)ethyl)azetidine-1-carboxylate] |
| 4.1 nM | 0.52 nM | CCn1nc(C)cc1C(=O)Nc1nc2cc(C(N)=O)cnc2n1C/C=C/Cn1c2nc(-c3cc(C)nn3CC)ncc2c2cc(C(N)=O)cc(OCCCCN(C)C(=O)OC(C)(C)C)c21 [Example 3-AA, tert-butyl (E)-(4-((6-carbamoyl-9-(4-(6-carbamoyl-2-(1-ethyl-3-methyl-1H-pyrazole-5-carboxamido)-3H-imidazo[4,5-b]pyridin-3-yl)but-2-en-1-yl)-2-(1-ethyl-3-methyl-1H-pyrazol-5-yl)-9H-pyrimido[4,5-b]indol-8-yl)oxy)butyl)(methyl)carbamate] |
| 28 nM | 1 nM | CCn1nc(C)cc1C(=O)Nc1nc2cc(C(N)=O)cnc2n1C/C=C/Cn1c2nc(-c3cc(C)nn3CC)ncc2c2cc(C(N)=O)cc(OCCCC3CCN(C(=O)OC(C)(C)C)CC3)c21 [Example 7-AA, tert-butyl (E)-4-(3-((6-carbamoyl-9-(4-(6-carbamoyl-2-(1-ethyl-3-methyl-1H-pyrazole-5-carboxamido)-3H-imidazo[4,5-b]pyridin-3-yl)but-2-en-1-yl)-2-(1-ethyl-3-methyl-1H-pyrazol-5-yl)-9H-pyrimido[4,5-b]indol-8-yl)oxy)propyl)piperidine-1-carboxylate] |
| 1040 nM | 30 nM | CCn1nc(C)cc1C(=O)Nc1nc2cc(C(N)=O)cnc2n1C/C=C/Cn1c2nc(-c3cc(C)nn3CC)ncc2c2cc(C(N)=O)cc(OCCC3CNC3)c21 [Example 4-AB, (E)-8-(2-(azetidin-3-yl)ethoxy)-9-(4-(6-carbamoyl-2-(1-ethyl-3-methyl-1H-pyrazole-5-carboxamido)-3H-imidazo[4,5-b]pyridin-3-yl)but-2-en-1-yl)-2-(1-ethyl-3-methyl-1H-pyrazol-5-yl)-9H-pyrimido[4,5-b]indole-6-carboxamide] |
| 305 nM | 16 nM | CCn1nc(C)cc1C(=O)Nc1nc2cc(C(N)=O)cnc2n1C/C=C/Cn1c2nc(-c3cc(C)nn3CC)ncc2c2cc(C(N)=O)cc(OCCCC3CCNCC3)c21 [Example 7-AB] |
| 862 nM | 27 nM | CCn1nc(C)cc1C(=O)Nc1nc2cc(C(N)=O)cnc2n1C/C=C/Cn1c2nc(-c3cc(C)nn3CC)ncc2c2cc(C(N)=O)cc(OCCCC3CNC3)c21 [Example 5-AB, (E)-8-(3-(azetidin-3-yl)propoxy)-9-(4-(6-carbamoyl-2-(1-ethyl-3-methyl-1H-pyrazole-5-carboxamido)-3H-imidazo[4,5-b]pyridin-3-yl)but-2-en-1-yl)-2-(1-ethyl-3-methyl-1H-pyrazol-5-yl)-9H-pyrimido[4,5-b]indole-6-carboxamide] |
| 49 nM | 0.9 nM | CCn1nc(C)cc1C(=O)Nc1nc2cc(C(N)=O)cnc2n1C/C=C/Cn1c2nc(-c3cc(C)nn3CC)ncc2c2cc(C(N)=O)cc(OCCC3CCN(C(=O)OC(C)(C)C)CC3)c21 [Example-6-AA, tert-butyl (E)-4-(2-((6-carbamoyl-9-(4-(6-carbamoyl-2-(1-ethyl-3-methyl-1H-pyrazole-5-carboxamido)-3H-imidazo[4,5-b]pyridin-3-yl)but-2-en-1-yl)-2-(1-ethyl-3-methyl-1H-pyrazol-5-yl)-9H-pyrimido[4,5-b]indol-8-yl)oxy)ethyl)piperidin-1-carboxylate] |
| 39 nM | 1.6 nM | CCn1nc(C)cc1C(=O)Nc1nc2cc(C(N)=O)cnc2n1C/C=C/Cn1c2nc(-c3cc(C)nn3CC)ncc2c2cc(C(N)=O)cc(OCCCC3CN(C(=O)OC(C)(C)C)C3)c21 [Example 5-AA, tert-butyl (E)-3-(3-((6-carbamoyl-9-(4-(6-carbamoyl-2-(1-ethyl-3-methyl-1H-pyrazole-5-carboxamido)-3H-imidazo[4,5-b]pyridin-3-yl)but-2-en-1-yl)-2-(1-ethyl-3-methyl-1H-pyrazol-5-yl)-9H-pyrimido[4,5-b]indol-8-yl)oxy)propyl)azetidine-1-carboxylate] |

From patent US12637480B2, “Heterocyclic compounds as sting modulators” (BEIGENE, LTD., priority 2020, dated 2026)
